Experiments:
Assay type in all cases: cell-based, human
[1] = tested on: CD24 cell surface expression in OVCAR8 cells; test: CD24 flow cytometry analysis in OVCAR8 cells; settings: for CD24 cell surface expression (MFI): OVCAR8, 3 days, bestatin 10 or 20 μM, tosedostat 5 or 10 μM, ARM1 1 or 2 μM, vs DMSO
Experimental: Flow Cytometry Analysis: For cell surface protein staining, 1×10^5-1×10^6 cells were first incubated with Fc receptor blocking solution, Human TruStain FcXTM (BioLegend, Cat #422301) for 10 minutes at room temperature. Cells were washed once in FACS buffer (1×PBS, 1.0% bovine serum albumin (BSA) (Sigma) and 0.2% sodium azide (Sigma), and then incubated with antibodies (given below) for 30 minutes at 4° C. in the dark. Cells were also stained with 7-AAD (Biolegend, Cat #420404) for dead cell exclusion, and flow cytometry analysis was performed using a Bio-Rad ZE5 Cell Analyzer. Following antibodies used in this study (all antibodies were used at 1:50 dilution unless otherwise noted): APC anti-human CD24 (BioLegend, Cat #311118, clone ML5), PE anti-human CD24 (eBioscience, Cat #12-0247-42, clone SN3), APC anti-human CD47 (BioLegend, Cat #323124, clone CC2C6), APC anti-human § 2-microglobulin (BioLegend, Cat #395711, clone […]), PE anti-human HLA-A2 (MHC-class I) (BioLegend, Cat #343305, clone BB7.2), APC anti-human CD11b (BioLegend, Cat #982604, clone ICRF44), APC anti-mouse F4/80 antibody (BioLegend, Cat #123116, clone BM8), APC-streptavidin (Thermo Fisher Scientific, Cat #SA1005, 1:100 dilution), PE anti-Calreticulin (Invitrogen, Catalog #MA5-15382, 1:200 dilution). For intracellular staining, cells were fixed with 1% paraformaldehyde for 5 min and permeabilized using the True-Nuclear Transcription Factor Buffer Set (BioLegend, Cat #424401) before the addition of the antibody. Small Molecule Inhibitor and Drug Treatments: OVCAR8 or SKOV3 cells were treated for 3 days with bestatin (Ubenimex) (SelleckChem, Cat #S1591) at 5, 10 or 20 μM (as indicated in the figure legends), Tosedostat (Medchem Express, Cat #HY-14807) at 5 μM or 10 μM (as indicated in the figure legends) or ARM-1 (Medchem Express, Cat #HY-W027340) at 1, or 2 μM (as indicated in the figure legends). Inhibitors were replenished every 24 hours. DMSO (Sigma Aldrich, Cat #D8418) was used as a vehicle. OVCAR8 cells were treated with Docetaxel (SelleckChem, Cat #S1148) at 100 nM or Carboplatin (SelleckChem, Cat #S1215 at 100 nM or Doxorubicin (SelleckChem, Cat #E2516) at 50 nM for 12 hours.

CD24 on normal B cells = test: CD24 flow cytometry analysis in primary B cells; settings: 20 μM bestatin or 10 μM tosedostat vs DMSO (FIG. 9A)
Experimental: Flow Cytometry Analysis: For cell surface protein staining, 1×10^5-1×10^6 cells were first incubated with Fc receptor blocking solution, Human TruStain FcX™ (BioLegend, Cat #422301) for 10 minutes at room temperature. Cells were washed once in FACS buffer (1×PBS, 1.0% bovine serum albumin (BSA) (Sigma) and 0.2% sodium azide (Sigma), and then incubated with antibodies (given below) for 30 minutes at 4° C. in the dark. Cells were also stained with 7-AAD (Biolegend, Cat #420404) for dead cell exclusion, and flow cytometry analysis was performed using a Bio-Rad ZE5 Cell Analyzer. Following antibodies used in this study (all antibodies were used at 1:50 dilution unless otherwise noted): APC anti-human CD24 (BioLegend, Cat #311118, clone ML5), PE anti-human CD24 (eBioscience, Cat #12-0247-42, clone SN3), APC anti-human CD47 (BioLegend, Cat #323124, clone CC2C6), APC anti-human § 2-microglobulin (BioLegend, Cat #395711, clone A17082A), PE anti-human HLA-A2 (MHC-class I) (BioLegend, Cat #343305, clone BB7.2), APC anti-human CD11b (BioLegend, Cat #982604, clone ICRF44), APC anti-mouse F4/80 antibody (BioLegend, Cat #123116, clone BM8), APC-streptavidin (Thermo Fisher Scientific, Cat #SA1005, 1:100 dilution), PE anti-Calreticulin (Invitrogen, Catalog #MA5-15382, 1:200 dilution). […]

SKOV3 cells = test: In vitro phagocytosis assay of SKOV3 cells by PBMC-derived M2 macrophages; settings: bestatin 20 μM, tosedostat 20 μM, vs DMSO

| Structure (SMILES) | total CD24 levels following permeabilization of cells ([1]; OVCAR8, 20 μM bestatin, permeabilized (FIG. 6E)) | CD24 cell surface expression (MFI) [1] | ability to decrease CD24 cell surface expression after knockdown of PEPT1 or PEPT2 ([1]; OVCAR8 expressing PEPT1 or PEPT2 shRNA, 20 μM bestatin (FIG. 7C)) | CD24 levels on B cells (MFI) (CD24 on normal B cells) | macrophage-mediated phagocytosis (SKOV3 cells) |
| --- | --- | --- | --- | --- | --- |
| CC(C)C[C@H](NC(=O)[C@@H](O)[C@H](N)Cc1ccccc1)C(=O)O [bestatin] | no significant effect | reduced CD24 cell surface expression in a dose-dependent manner | abrogated | not diminished | substantially increased |
| CC(C)C[C@@H](C(=O)N[C@H](C(=O)OC1CCCC1)c1ccccc1)[C@H](O)C(=O)NO [tosedostat] |  | reduced |  | not diminished | increased |

— patent US20260209777A1, “TARGETING GLYCOSYLPHOSPHATIDYLINOSITOL (GPI) PATHWAY PROTEINS TO TREAT OVARIAN CANCER” (UNIVERSITY OF MASSACHUSETTS, priority 2023, published 2026)
